This note sets out measurements from patent US7842324B2 (Senomyx, Inc., priority 2005, dated 2010).

Usually EC50 stands for the concentration needed to bring the measured effect to its halfway point.

This experiment addresses T1, hT1R2/hT1R3 sweet receptor expressed in HEK293 cell line (Homo sapiens, UniProt Q7RTX0+Q8TE23).
T1 construct: expressed in transfected cells; host or cells: HEK293 derivative stably expressing Gα15 and hT1R2/hT1R3, clone S-9
T1 sequence (Q8TE23 20-839): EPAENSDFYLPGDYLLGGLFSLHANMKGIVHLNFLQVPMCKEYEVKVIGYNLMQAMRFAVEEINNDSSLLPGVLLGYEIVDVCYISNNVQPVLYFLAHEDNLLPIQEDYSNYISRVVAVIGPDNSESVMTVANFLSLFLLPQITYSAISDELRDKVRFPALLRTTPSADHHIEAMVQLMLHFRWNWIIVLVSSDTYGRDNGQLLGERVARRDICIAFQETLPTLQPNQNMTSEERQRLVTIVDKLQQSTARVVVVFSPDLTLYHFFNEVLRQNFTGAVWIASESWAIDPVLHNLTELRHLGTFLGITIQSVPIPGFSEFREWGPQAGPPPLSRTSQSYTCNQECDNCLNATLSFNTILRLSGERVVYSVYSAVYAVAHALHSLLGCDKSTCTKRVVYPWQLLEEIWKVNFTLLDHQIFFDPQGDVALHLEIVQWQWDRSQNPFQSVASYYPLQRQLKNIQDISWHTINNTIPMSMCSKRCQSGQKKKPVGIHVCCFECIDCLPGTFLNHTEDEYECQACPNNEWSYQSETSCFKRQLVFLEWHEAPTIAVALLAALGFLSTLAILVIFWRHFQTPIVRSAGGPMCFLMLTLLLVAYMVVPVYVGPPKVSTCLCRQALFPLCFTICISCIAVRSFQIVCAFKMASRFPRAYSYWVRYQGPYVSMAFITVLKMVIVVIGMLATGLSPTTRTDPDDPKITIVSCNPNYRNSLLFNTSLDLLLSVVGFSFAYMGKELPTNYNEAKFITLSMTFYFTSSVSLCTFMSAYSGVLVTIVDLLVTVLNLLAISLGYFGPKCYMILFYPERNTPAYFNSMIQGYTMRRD
T1 sequence (Q7RTX0 21-852): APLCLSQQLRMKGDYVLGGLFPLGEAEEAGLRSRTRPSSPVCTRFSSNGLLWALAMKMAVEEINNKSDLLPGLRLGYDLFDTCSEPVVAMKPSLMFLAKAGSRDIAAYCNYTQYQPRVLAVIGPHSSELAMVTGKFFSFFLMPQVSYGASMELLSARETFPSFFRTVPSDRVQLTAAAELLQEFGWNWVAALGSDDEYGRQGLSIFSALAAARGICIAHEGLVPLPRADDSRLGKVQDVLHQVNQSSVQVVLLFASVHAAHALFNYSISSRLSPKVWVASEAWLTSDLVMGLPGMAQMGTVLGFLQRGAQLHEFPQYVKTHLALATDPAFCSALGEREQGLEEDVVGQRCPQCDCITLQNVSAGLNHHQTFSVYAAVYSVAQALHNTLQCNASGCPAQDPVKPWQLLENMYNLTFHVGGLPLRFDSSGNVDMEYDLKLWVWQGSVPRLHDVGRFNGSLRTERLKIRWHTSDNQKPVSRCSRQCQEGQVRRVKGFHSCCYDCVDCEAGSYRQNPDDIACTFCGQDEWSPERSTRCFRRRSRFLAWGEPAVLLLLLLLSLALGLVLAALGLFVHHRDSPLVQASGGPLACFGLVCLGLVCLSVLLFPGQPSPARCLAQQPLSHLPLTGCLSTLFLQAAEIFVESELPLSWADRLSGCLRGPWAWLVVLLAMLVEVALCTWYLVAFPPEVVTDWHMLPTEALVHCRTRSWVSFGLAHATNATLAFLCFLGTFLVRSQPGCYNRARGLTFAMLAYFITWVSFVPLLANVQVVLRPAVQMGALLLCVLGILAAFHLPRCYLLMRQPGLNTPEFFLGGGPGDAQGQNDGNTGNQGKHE
Put plainly: In vitro hT1R2/hT1R3-HEK293 taste receptor activation assay (FLIPR). The experiment is classed as cell-based. The settings on record: Table A; read-out: SWEET EC50. How it is done:
An HEK293 cell line derivative (Chandrashekar et al., Cell (2000) 100:703-711) that stably expresses Gα15 and hT1R2/hT1R3 (Li et al., Proc Natl Acad Sci USA (2002) 99:4692-4696), see also PCT Publication No. WO 03/001876 A2) was used to identify compounds with sweet taste enhancing properties.
Compounds covered in this document were initially selected based on their activity on the hT1R2/hT1R3-HEK293-Gα15 cell line (Li et al. vide supra). Activity was determined using an automated fluorometric imaging assay on a FLIPR instrument ([…], Molecular Devices, Sunnyvale, Calif.) (designated FLIPR assay). Cells from one clone (designated S-9 cells) were seeded into 384-well plates (at approximately 50,000 cells per well) in a medium containing DMEM Low Glucose (Invitrogen, Carlsbad, Calif.), 10% dialyzed fetal bovine serum (Invitrogen, Carlsbad, Calif.), 100 Units/ml Penicillin G, and 100 μg/ml Streptomycin (Invitrogen, Carlsbad, Calif.) (Li et al. vide supra) see also PCT Publication No. WO 03/001876 A2). S-9 cells were grown for 24 hours at 37° C. S-9 cells were then loaded with the calcium dye Fluo-3AM (Molecular Probes, Eugene, Oreg.), 4 μM in a phosphate buffered saline (D-PBS) (Invitrogen, Carlsbad, Calif.), for 1 hour at room temperature. After replacement with 25 μl D-PBS, stimulation was performed in the FLIPR instrument and at room temperature by the addition of 25 μl D-PBS supplemented with different stimuli at concentrations corresponding to twice the desired final level. Receptor activity was quantified by determining the maximal fluorescence increases (using a 480 nm excitation and 535 nm emission) after normalization to basal fluorescence intensity measured before stimulation.
For dose-responses analysis, stimuli were presented in duplicates at 10 different concentrations ranging from 60 nM to 30 μM. Activities were normalized to the response obtained with 400 mM D-fructose, a concentration that elicits maximum receptor response. EC50s were determined using a non-linear regression algorithm (using a Senomyx, Inc. software), where the Hill slope, bottom asymptotes and top asymptotes were allow to vary. Identical results were obtained when analyzing the dose-response data using commercially available software for non-linear regression analysis such as GraphPad PRISM (San Diego, Calif.).

For the molecule `CC(C)CNC(=O)C(C)(C)c1ccc(-c2cnc3ccccn23)cc1` [Compound A25], the EC50 was determined as 1.23 µM.

With `CC(C)CNC(=O)C(C)(C)c1ccc(-c2cccc3[nH]ccc23)cc1` [Compound A26], the EC50 came out at 2.02 µM.

For the molecule `CC(C)(C(=O)NC[C@@H]1CCCO1)c1ccc(-c2cncc(C#N)c2)cc1` [Compound A27], the concentration giving a half-maximal response (EC50) worked out at 2.06 µM.

Take `CC(C)(C(=O)N[C@@H](O)c1ccccc1)c1ccc(-c2cncc(C#N)c2)cc1` [Compound A28]: the EC50 is 2.06 µM.

Consider `CCCNC(=O)C(C)(C)c1ccc(-c2cncc(COC)c2)cc1` [Compound A29], for which the EC50 is 2.91 µM.

For the molecule `COCc1cccc(-c2ccc(C(C)(C)C(=O)NCC(C)C)nc2)c1` [Compound A30], the EC50 turned out to be 3.05 µM.

As to `COCc1cccc(-c2ccc(C(C)(C)C(=O)NCC(C)C)cn2)c1` [Compound A31], the concentration for a half-maximal effect (EC50) came to 3.79 µM.

With `CC(C)CNC(=O)C(C)(C)c1ccc(-c2cscn2)cc1` [Compound A32], the EC50 stood at 5.4 µM.

Regarding `CC(C)CNC(=O)C(C)(C)c1ccc(-c2ccncn2)cc1` [Compound A33], the EC50 turned out to be 5.4 µM.

With `CC(C)CNC(=O)C(C)(C)c1ccc(-n2ccnc2)cc1` [Compound A34], the EC50 amounted to 10.1 µM.

`CC(C)CNC(=O)C(C)(C)c1ccc(-c2cnco2)cc1` [Compound A35]: the EC50 amounted to 11.5 µM.

As for `CC(C)CNC(=O)C(C)(C)c1ccc(-c2ccccc2)cc1` [Compound A36], the EC50 stood at 1.28 µM.

For the molecule `CC(C)CNC(=O)C(C)(C)c1ccc(-c2cccc(C=O)c2)cc1` [Compound A37], the EC50 came out at 0.76 µM.

Turning to `CC(C)CNC(=O)C(C)(C)c1ccc(-c2cccc(S(C)(=O)=O)c2)cc1` [Compound A38], the EC50 amounted to 1.49 µM.

Consider `CC(C)CNC(=O)Cc1ccc(-c2ccccc2)cc1` [Compound A39], for which the EC50 stood at 1.54 µM.

Consider `CCC(CC)NC(=O)C(C)(C)c1ccc(-c2cncc(C#N)n2)cc1` [Compound A40], for which the EC50 was found to be 0.03 µM.

Regarding `CCC(C)CNC(=O)C(C)(C)c1ccc(-c2cncc(C#N)n2)cc1` (stereo not drawn) [Compound A41], the EC50 is 0.05 µM.

`CC(NC(=O)C(C)(C)c1ccc(-c2cncc(C#N)n2)cc1)c1ccco1` (stereo not drawn) [Compound A42]: the EC50 was determined as 0.1 µM.

Regarding `CC(C)(C(=O)NC1CCCC1)c1ccc(-c2cncc(C#N)n2)cc1` [Compound A43], the EC50 amounted to 0.13 µM.

On to `CC(C)[C@@H](C)NC(=O)C(C)(C)c1ccc(-c2cncc(C#N)n2)cc1` [Compound A44], for which the EC50 was 0.21 µM.

Regarding `CC(C)(C(=O)NCC1CC1)c1ccc(-c2cncc(C#N)n2)cc1` [Compound A45], the EC50 turned out to be 0.27 µM.

Regarding `CC(C)[C@H](C)NC(=O)C(C)(C)c1ccc(-c2cncc(C#N)n2)cc1` [Compound A46], the EC50 stood at 0.31 µM.

As for `CC(C)(C(=O)NC1CC1)c1ccc(-c2cncc(C#N)n2)cc1` [Compound A47], the EC50 was 0.32 µM.

For the molecule `CC(C)CNC(=O)C(C)(C)c1ccc(-c2cocc2C#N)cc1` [Compound A48], the EC50 was 0.32 µM.

With `CC(C)(C(=O)NC1CCC1)c1ccc(-c2cncc(C#N)n2)cc1` [Compound A49], the EC50 turned out to be 0.37 µM.

As to `CC[C@@H](C)NC(=O)C(C)(C)c1ccc(-c2cncc(C#N)n2)cc1` [Compound A50], the EC50 is 0.37 µM.

As for `CC(C)(C(=O)NC1CCC1)c1ccc(-c2cncc(C#N)c2)cc1` [Compound A51], the EC50 was 0.41 µM.

In the case of `CCCNC(=O)C(C)(C)c1ccc(-c2cncc(C#N)n2)cc1` [Compound A52], the EC50 stood at 0.47 µM.

Take `CC[C@@H](C)NC(=O)C(C)(C)c1ccc(-c2cccc(COC)c2)cc1` [Compound A53]: the EC50 turned out to be 0.55 µM.

Take `CC(C)(C(=O)NCc1ccoc1)c1ccc(-c2cncc(C#N)n2)cc1` [Compound A54]: the EC50 came out at 0.59 µM.

In the case of `CC(C)NC(=O)C(C)(C)c1ccc(-c2cncc(C#N)n2)cc1` [Compound A55], the EC50 turned out to be 0.65 µM.

Regarding `CC(C)CNC(=O)C(C)(C)c1ccc(-c2cccnc2)cc1` [Compound A56], the EC50 is 0.77 µM.

Consider `COCc1cccc(-c2ccc(C(C)(C)C(=O)NC(C)C)cc2)c1` [Compound A57], for which the EC50 is 0.92 µM.

In the case of `CC[C@@H](C)NC(=O)C(C)(C)c1ccc(-c2cncc(COC)c2)cc1` [Compound A58], the EC50 is 1.05 µM.

Consider `Cc1cscc1-c1ccc(C(C)(C)C(=O)NCC(C)C)cn1` [Compound A59], for which the EC50 came out at 1.05 µM.

Turning to `CC[C@H](CO)NC(=O)C(C)(C)c1ccc(-c2ccccc2)cc1` [Compound A60], the EC50 is 1.1 µM.

In the case of `CC(C)(C(=O)NCC(O)c1ccccc1)c1ccc(-c2cncc(C#N)c2)cc1` (stereo not drawn) [Compound A61], the EC50 worked out at 1.17 µM.

Take `CCC(COC)NC(=O)C(C)(C)c1ccc(-c2cncc(C#N)c2)cc1` (stereo not drawn) [Compound A62]: the EC50 worked out at 1.22 µM.

In the case of `CC(C)CNC(=O)C(C)(C)c1ccc(-c2ccc(C#N)o2)cc1` [Compound A63], the EC50 worked out at 1.29 µM.

As to `CC[C@H](C)NC(=O)C(C)(C)c1ccc(-c2cncc(COC)c2)cc1` [Compound A64], the EC50 came out at 1.29 µM.

With `CC(C)(C(=O)NCC(O)c1ccco1)c1ccc(-c2cncc(C#N)n2)cc1` (stereo not drawn) [Compound A65], the EC50 came to 1.31 µM.

For `CC(C)CNC(=O)C(C)(C)c1ccc(-c2coc(C(=O)O)c2)cc1` [Compound A66], the EC50 was determined as 1.37 µM.

As for `CC(C)CNC(=O)C(C)(C)c1ccc(-c2ccccc2)c(O)c1` [Compound A67], the EC50 was 1.42 µM.

Consider `CCOc1cncc(-c2ccc(C(C)(C)C(=O)NCC(C)C)cc2)c1` [Compound A68], for which the EC50 was found to be 1.59 µM.

Turning to `CCC[C@@H](CO)NC(=O)C(C)(C)c1ccc(-c2cncc(C#N)c2)cc1` [Compound A69], the EC50 amounted to 1.66 µM.

In the case of `CCC(C)CNC(=O)C(C)(C)c1ccc(-c2cncc(COC)c2)cc1` (stereo not drawn) [Compound A70], the EC50 is 0.51 µM.

For the molecule `CC(C)CNC(=O)C(C)(C)c1ccc(-c2cocc2/C=N/O)cc1` [Compound A71], the EC50 was determined as 0.75 µM.

For the molecule `CC(C)(C(=O)CCc1ccco1)c1ccc(-c2cncc(C#N)c2)cc1` [Compound A72], the EC50 worked out at 0.18 µM.
